Laboratory results published in patent publication US10336761B2, “TGFβ receptor antagonist” (BRISTOL-MYERS SQUIBB COMPANY, priority 2015, dated 2019).

Target: HIS-TGFβR1 T204D (Homo sapiens (Human), UniProt P36897, T204D)
Assay: HTRF probe-displacement assay, HIS-TGFβR1 T204D
Assay type: binding
Conditions: 1 hour at room temperature

HIS-TGFβR1 T204D, sequence (P36897 34-503 T204D): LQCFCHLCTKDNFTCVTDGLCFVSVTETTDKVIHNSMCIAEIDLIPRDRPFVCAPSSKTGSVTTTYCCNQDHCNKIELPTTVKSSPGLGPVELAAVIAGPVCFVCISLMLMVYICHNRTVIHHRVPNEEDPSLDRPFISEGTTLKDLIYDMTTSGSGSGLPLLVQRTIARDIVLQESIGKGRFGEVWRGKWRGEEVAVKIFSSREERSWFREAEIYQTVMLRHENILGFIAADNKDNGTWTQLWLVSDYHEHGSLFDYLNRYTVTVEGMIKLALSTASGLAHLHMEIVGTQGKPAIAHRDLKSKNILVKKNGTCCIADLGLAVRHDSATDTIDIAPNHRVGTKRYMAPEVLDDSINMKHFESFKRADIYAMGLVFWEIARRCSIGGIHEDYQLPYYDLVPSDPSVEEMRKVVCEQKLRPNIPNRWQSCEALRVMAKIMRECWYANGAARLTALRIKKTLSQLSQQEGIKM

Structure (SMILES)	IC50 [nM]
COc1cccc(-c2nc(Nc3ccncn3)c3cccn3n2)n1 [Example 67, N-[2-(6-methoxypyridin-2-yl)pyrrolo[2,1-f][1,2,4]triazin-4-yl]pyrimidin-4-amine]	55
O=C(CCN1CC(F)(F)C1)Nc1cc(Nc2nc(-c3cccc(C(F)(F)F)n3)nn3cccc23)ccn1 [Example 341, 3-(3,3-difluoroazetidin-1-yl)-N-[4-({2-[6-(trifluoromethyl)pyridin-2-yl]pyrrolo[2,1-f][1,2,4]triazin-4-yl}amino)pyridin-2-yl]propanamide]	2.7
CN1CCN(CC(=O)Nc2cc(Nc3nc(-c4cccc(C(F)(F)F)n4)nn4cccc34)ccn2)CC1 [Example 316, 2-(4-methylpiperazin-1-yl)-N-[4-({2-[6-(trifluoromethyl)pyridin-2-yl]pyrrolo[2,1-f][1,2,4]triazin-4-yl}amino)pyridin-2-yl]acetamide]	1
FC(F)c1cnccc1Nc1nc(-c2cccc(C(F)(F)F)n2)nn2cccc12 [Example 2, 3-(difluoromethyl)-N-{2-[6-(trifluoromethyl)pyridin-2-yl]pyrrolo[2,1-f][1,2,4]triazin-4-yl}pyridin-4-amine]	11
CC(C)(O)CNCc1ccn2nc(-c3ccccn3)nc(Nc3ccncc3F)c12 [Example 125, 1-[({4-[(3-fluoropyridin-4-yl)amino]-2-(pyridin-2-yl)pyrrolo[2,1-f][1,2,4]triazin-5-yl}methyl)amino]-2-methylpropan-2-ol]	1.6
O=C(N[C@@H]1CCC[C@@H]1O)c1cnccc1Nc1nc(-c2cccc(C(F)F)n2)nn2cccc12 [Example 198, 4-({2-[6-(difluoromethyl)pyridin-2-yl]pyrrolo[2,1-f][1,2,4]triazin-4-yl}amino)-N-[(1R,2S)-2-hydroxycyclopentyl]pyridine-3-carboxamide]	140
CC(C)(C)OC(=O)N1CCN(CCNC(=O)c2cnccc2Nc2nc(-c3ccccn3)nn3cccc23)CC1 [Example 145, tert-butyl 4-{2-[(4-{[2-(pyridin-2-yl)pyrrolo[2,1-f][1,2,4]triazin-4-yl]amino}pyridin-3-yl)formamido]ethyl}piperazine-1-carboxylate]	210
COc1cccc(-c2nc(Nc3ccncc3F)c3cc(NC(C)=O)cn3n2)n1 [Example 104, N-{4-[(3-fluoropyridin-4-yl)amino]-2-(6-methoxypyridin-2-yl)pyrrolo[2,1-f][1,2,4]triazin-6-yl}acetamide]	86
O=C(c1cnccc1Nc1nc(-c2cccc(C(F)F)n2)nn2cccc12)N1CCC(O)CC1 [Example 200, 1-[4-({2-[6-(difluoromethyl)pyridin-2-yl]pyrrolo[2,1-f][1,2,4]triazin-4-yl}amino)pyridine-3-carbonyl]piperidin-4-ol]	3500
Fc1cnccc1Nc1nc(-c2ccccn2)nn2ccc(CNc3ccc4[nH]nnc4c3)c12 [Example 306, N-({4-[(3-fluoropyridin-4-yl)amino]-2-(pyridin-2-yl)pyrrolo[2,1-f][1,2,4]triazin-5-yl}methyl)-1H-1,2,3-benzotriazol-5-amine]	5.3
CS(=O)(=O)Nc1cccc(-c2nc(Nc3ccncc3F)c3cccn3n2)n1 [Example 77, N-(6-{4-[(3-fluoropyridin-4-yl)amino]pyrrolo[2,1-f][1,2,4]triazin-2-yl}pyridin-2-yl)methanesulfonamide]	12
O=C(NCCCN1CCS(=O)(=O)CC1)c1cnccc1Nc1nc(-c2ccccn2)nn2cccc12 [Example 148, N-[3-(1,1-dioxo-1,4-thiomorpholin-4-yl)propyl]-4-{[2-(pyridin-2-yl)pyrrolo[2,1-f][1,2,4]triazin-4-yl]amino}pyridine-3-carboxamide]	83
C[C@@H]1CN(CCNC(=O)c2cnccc2Nc2nc(-c3ccccn3)nn3cccc23)C[C@H](C)O1 [Example 146, N-{2-[cis-2,6-dimethylmorpholin-4-yl]ethyl}-4-{[2-(pyridin-2-yl)pyrrolo[2,1-f][1,2,4]triazin-4-yl]amino}pyridine-3-carboxamide]	170
COc1cccc(-c2nc(Nc3ccncc3COCCCN3CCOCC3)c3cccn3n2)n1 [Example 38, N-[2-(6-methoxypyridin-2-yl)pyrrolo[2,1-f][1,2,4]triazin-4-yl]-3-{[3-(morpholin-4-yl)propoxy]methyl}pyridin-4-amine]	680
OCC1(NCc2ccn3nc(-c4ccccn4)nc(Nc4ccncc4F)c23)CCCC1 [Example 244, {1-[({4-[(3-fluoropyridin-4-yl)amino]-2-(pyridin-2-yl)pyrrolo[2,1-f][1,2,4]triazin-5-yl}methyl)amino]cyclopentyl}methanol]	6.3
O=C(CN1CCCC1)Nc1cc(Nc2nc(-c3cccc(C(F)F)n3)nn3cccc23)ccn1 [Example 33, N-[4-({2-[6-(difluoromethyl)pyridin-2-yl]pyrrolo[2,1-f][1,2,4]triazin-4-yl}amino)pyridin-2-yl]-2-(pyrrolidin-1-yl)acetamide]	0.9
Fc1cnccc1Nc1nc(-c2ccccn2)nn2ccc(CNc3ccc(-c4cnco4)cc3)c12 [Example 297, 3-fluoro-N-[5-({[4-(1,3-oxazol-5-yl)phenyl]amino}methyl)-2-(pyridin-2-yl)pyrrolo[2,1-f][1,2,4]triazin-4-yl]pyridin-4-amine]	71

Structure (SMILES)	IC50 [nM]
CC(C)(O)CNC(=O)c1cnccc1Nc1nc(-c2cccc(C(F)F)n2)nn2cccc12 [Example 188, 4-({2-[6-(difluoromethyl)pyridin-2-yl]pyrrolo[2,1-f][1,2,4]triazin-4-yl}amino)-N-(2-hydroxy-2-methylpropyl)pyridine-3-carboxamide]	49
O=C(NCCCN1CCOCC1)c1cnccc1Nc1nc(-c2cccc(C(F)(F)F)n2)nn2cccc12 [Example 169, N-[3-(morpholin-4-yl)propyl]-4-({2-[6-(trifluoromethyl)pyridin-2-yl]pyrrolo[2,1-f][1,2,4]triazin-4-yl}amino)pyridine-3-carboxamide]	45
COc1cccc(-c2nc(Nc3ccncc3F)c3cc(NC(=O)CNC(=O)OC(C)(C)C)cn3n2)n1 [Example 108, tert-butyl N-[({4-[(3-fluoropyridin-4-yl)amino]-2-(6-methoxypyridin-2-yl)pyrrolo[2,1-f][1,2,4]triazin-6-yl}carbamoyl)methyl]carbamate]	330
Cn1nccc1-c1nc(Nc2ccncc2Cl)c2cccn2n1 [Example 81, 3-chloro-N-[2-(1-methyl-1H-pyrazol-5-yl)pyrrolo[2,1-f][1,2,4]triazin-4-yl]pyridin-4-amine]	360
Cc1cccc(-c2nc(Nc3ccncc3F)c3c(CN4CCN(CCO)CC4)ccn3n2)n1 [Example 259, 2-[4-({4-[(3-fluoropyridin-4-yl)amino]-2-(6-methylpyridin-2-yl)pyrrolo[2,1-f][1,2,4]triazin-5-yl}methyl)piperazin-1-yl]ethan-1-ol]	0.93
CC(C)CC(=O)Nc1cc(Nc2nc(-c3cccc(C(F)(F)F)n3)nn3cccc23)ccn1 [Example 314, 3-methyl-N-[4-({2-[6-(trifluoromethyl)pyridin-2-yl]pyrrolo[2,1-f][1,2,4]triazin-4-yl}amino)pyridin-2-yl]butanamide]	5.6
COc1cccc(-c2nc(NCc3ccncc3)c3cccn3n2)n1 [Example 31, 2-(6-methoxypyridin-2-yl)-N-(pyridin-4-ylmethyl)pyrrolo[2,1-f][1,2,4]triazin-4-amine]	810
Cc1cccc(-c2nc(Nc3ccncc3)c3cc(C(=O)Nc4ccccc4)cn3n2)n1 [Example 217, 2-(6-methylpyridin-2-yl)-N-phenyl-4-[(pyridin-4-yl)amino]pyrrolo[2,1-f][1,2,4]triazine-6-carboxamide]	7.7
COc1cccc(-c2nc(Nc3ccncc3F)c3cc(CCN4CCN(C)CC4)cn3n2)n1 [Example 44, 3-fluoro-N-[2-(6-methoxypyridin-2-yl)-6-[2-(4-methylpiperazin-1-yl)ethyl]pyrrolo[2,1-f][1,2,4]triazin-4-yl]pyridin-4-amine]	1700
OCCN1CCN(Cc2ccn3nc(-c4cccc(C(F)F)n4)nc(Nc4ccncc4F)c23)CC1 [Example 253, 2-[4-({2-[6-(difluoromethyl)pyridin-2-yl]-4-[(3-fluoropyridin-4-yl)amino]pyrrolo[2,1-f][1,2,4]triazin-5-yl}methyl)piperazin-1-yl]ethan-1-ol]	1.2
Cc1cccc(-c2nc(Nc3ccncn3)c3cccn3n2)n1 [Example 64, N-[2-(6-methylpyridin-2-yl)pyrrolo[2,1-f][1,2,4]triazin-4-yl]pyrimidin-4-amine]	2.2
CC(C)n1cc(NCc2ccn3nc(-c4ccccn4)nc(Nc4ccncc4F)c23)cn1 [Example 302, 3-fluoro-N-[5-({[1-(propan-2-yl)-1H-pyrazol-4-yl]amino}methyl)-2-(pyridin-2-yl)pyrrolo[2,1-f][1,2,4]triazin-4-yl]pyridin-4-amine]	1.7
COCc1noc(CNC(=O)c2cnccc2Nc2nc(-c3cccc(C(F)F)n3)nn3cccc23)n1 [Example 205, 4-({2-[6-(difluoromethyl)pyridin-2-yl]pyrrolo[2,1-f][1,2,4]triazin-4-yl}amino)-N-{[3-(methoxymethyl)-1,2,4-oxadiazol-5-yl]methyl}pyridine-3-carboxamide]	22
CC(=O)Nc1cc(Nc2nc(-c3ccc(C(F)(F)F)cn3)nn3cccc23)ccn1 [Example 332, N-[4-({2-[5-(trifluoromethyl)pyridin-2-yl]pyrrolo[2,1-f][1,2,4]triazin-4-yl}amino)pyridin-2-yl]acetamide]	47
Fc1cnccc1Nc1nc(-c2ccccn2)nn2ccc(CNc3cc(-c4ccccc4)[nH]n3)c12 [Example 298, 3-fluoro-N-(5-{[(5-phenyl-1H-pyrazol-3-yl)amino]methyl}-2-(pyridin-2-yl)pyrrolo[2,1-f][1,2,4]triazin-4-yl)pyridin-4-amine]	27
CC(O)c1cccc(-c2nc(Nc3ccncc3F)c3cccn3n2)n1 (stereo not shown) [Example 32, 1-(6-{4-[(3-fluoropyridin-4-yl)amino]pyrrolo[2,1-f][1,2,4]triazin-2-yl}pyridin-2-yl)ethan-1-ol]	70
O=C(NCCCN1CCCC1)c1cnccc1Nc1nc(-c2cccc(C(F)(F)F)n2)nn2cccc12 [Example 37]	47
